Patent publication US20090105155A1, “TRUNCATED LHRH FORMULATIONS” (priority 2004, published 2009)
Where no end group is shown, it is not given here.

How the values were obtained:
Assay type in all cases: in vivo
LHRH [1] = experiment: Anti-LHRH antibody titres induced by different priming and boosting regimes (Example 2); settings: Beagles/foxhound dogs, 5 nmoles total peptides (pool p25, p35, p62) with Iscomatrix; for titres of antibodies following the second dose of vaccine: doses week 0, 4, 14, LHRH (2-10) compared with LHRH (6-10)
Excerpt: (§1) Beagles/foxhound dogs were divided into three groups. One group (12 dogs) received three doses of 5 nmoles of total peptides consisting of a pool of peptides p25, p35 and p62 coupled to LHRH (6-10).
(§2) A second group (6 dogs) received three doses of 5 nmoles of total peptides consisting of a pool of peptides p25, p35 and p62 coupled to LHRH (2-10).
(§3) A third group (6 dogs) received three doses of 5 nmoles of total peptides consisting of a pool of peptides p25, p35 and p62 coupled to LHRH (2-10) as the first dose. For the second and third dose the vaccine was the same pool of peptides but coupled to LHRH (6-10).
(§4) The dogs received the three doses of vaccine in week 0, 4 and 14 respectively.
(§5) 1 to 1.5 mg of each of the peptides were weighed out and dissolved in 100 ul of 4 M urea separately. The amounts of the solutions corresponding to 1.7 nmoles of each peptide were mixed and diluted with isotonic saline to the designated dose volume for injection (1 ml per dose). For each dose 150 ug of Iscomatrix•® (CSL, Melbourne, Australia) was also added as adjuvant. The vaccine was given to dogs in the scruff of the neck.

LHRH [2] = experiment: Testosterone and progesterone levels following vaccination with LHRH (6-10) or LHRH (4-10) (Example 3); settings: Beagles/foxhound dogs, 35 nmoles total peptides, 7-peptide pool with Iscomatrix; for hormone breakthrough: testosterone and progesterone
Experimental: (§6) Beagles/foxhound dogs were divided into two groups. One group (15 dogs) received three doses of 35 nmoles of total peptides consisting of a pool of peptides p4, p10, p24, p25, p27, p35 and p62 coupled to LHRH (6-10).
(§7) A second group (15 dogs) received three doses of 35 nmoles of total peptides consisting of a pool of peptides p4, p10, p24, p25, p27, p35 and p62 coupled to LHRH (4-10).
as §4
as §5, with “5” for “1.7”

LHRH [3] = experiment: Anti-LHRH antibody titres induced by LHRH (6-10) and LHRH (4-10) (Example 3); settings: Beagles/foxhound dogs; 35 nmoles total peptides (pool p4, p10, p24, p25, p27, p35, p62) with Iscomatrix; week 0, 4, 14; compared with LHRH (6-10)
Experimental: as §6, §7, §4
as §5, with “5” for “1.7”

LHRH [4] = experiment: Testosterone and progesterone levels in vaccinated dogs (Example 2); settings: Beagles/foxhound dogs; two doses; proportion of animals, compared with the other regimes
Excerpt: as §1, §2, §3, §4, §5

Question: For “LHRH (2-10)-LHRH (6-10): Regime: p25, p35, p62 pool coupled to LHRH (2-10) as first dose, same pool coupled to LHRH (6-10) for second and third dose (HWSYGLRPG; ends and bridges not checked; also: coupled to T helper peptide pool; UniProt P01148 25-33, looked up, fragment)”, which “titre in the primary antibody response” value (LHRH [1]; comparison of the three regimes) is on record?
Answer: The value was “lowest titres”.

Question: For “LHRH (2-10): Vaccine: pool of peptides p25, p35 and p62 coupled to LHRH (2-10), with Iscomatrix adjuvant (HWSYGLRPG; ends and bridges not checked; also: coupled to T helper peptide pool; UniProt P01148 25-33, looked up, fragment)”, which “titres of antibodies following the second dose of vaccine” value (LHRH [1]) is on record?
Answer: Its value is “little apparent difference”.

Question: How did the “effect on progesterone levels” value (LHRH [2]; compared with LHRH (6-10)) turn out when “LHRH (4-10): Vaccine: pool of peptides p4, p10, p24, p25, p27, p35 and p62 coupled to LHRH (4-10) (SYGLRPG), with Iscomatrix adjuvant” was run?
Answer: Its value is “more striking effect”.

Question: What about the “effect on testosterone levels” value (LHRH [2]; compared with LHRH (6-10)) of the same substance?
Answer: Its value is “more striking effect”.

Question: And the hormone breakthrough (LHRH [2])?
Answer: Its hormone breakthrough is “no animals show hormone breakthrough”.

Question: What about the titres of antibodies (LHRH [3]) of the same substance?
Answer: Its titres of antibodies is “Higher titres”.

Question: With “LHRH (6-10): Vaccine: T helper epitope peptides coupled to LHRH (6-10), Iscomatrix; pool p25, p35, p62 (Example 2) or seven-peptide pool (Example 3) (GLRPG; ends and bridges not checked; also: coupled to T helper peptide pool; UniProt P01148 29-33, looked up, fragment)” as the substance, how does the levels of progesterone (LHRH [4]) read?
Answer: The levels of progesterone was “lower levels”.

Question: What about the levels of testosterone (LHRH [4]) of the same substance?
Answer: The levels of testosterone was “lower levels”.

Question: And the hormone breakthrough (LHRH [2])?
Answer: Its hormone breakthrough is “hormone breakthrough”.

Question: And the “titres of antibodies following the second dose of vaccine” value (LHRH [1])?
Answer: The value was “little apparent difference”.
